According to patent US8618074B2, “GPCR enhanced neuroprotection to treat brain injury” (Board of Regents of the University of Texas System, priority 2007, dated 2013):
One block for each compound: values may come before it.

Key:
astrocytes [1] = assay: Astrocyte survival under t-buOOH oxidative stress in the absence of neurons; assay type: cell-based, mouse
Procedure: To determine whether P2Y-R enhanced mitochondrial metabolism in astrocytes affected neuronal resistance to oxidative stress, we prepared co-cultures of neurons and astrocytes using corning transwell-clear permeable supports, which physically separates the two cell-types by ˜1 mm (# 07-200-170, Fisher scientific). Primary cultures of astrocytes were directly prepared in transwell supports until they were ˜70% confluent. Mouse cortical neurons were then cultured onto glass bottom mattek plates and maintained in B-27/Neurobasal Medium to control glia contamination to less than 0.5% (Invitrogen). After four days, co-cultures were treated with t-buOOH (100 μM) for 4 hours with and without pre-stimulation of ATP (2 μM, 10 minutes). Cells were then stained with the DNA intercalating dye Hoechst 33342 (10 μg/ml, Molecular Probes, #H-3570) and calcein AM (2 μM, Molecular Probes, #C3100). […] We then tested the neuroprotective affects of isoform specific purinergic ligands 2-MeSADP(P2Y1-R) and UTP(P2Y2-R). FIG. 6A depicts histogram plots of the percentage of neurons alive when cocultured with young or old astrocytes. FIG. 6B depicts histogram plots of the percentage of neurons alive pretreated with either 2-MeSADP (2 μM) or UTP (50 μM) for 10 min. A ten-minute pre-treatment of astrocytes with either 2-MeSADP (2 μM), or UTP (50 μM) was equally protective against oxidative stress induced cell death. The % neurons alive after 4.5 hours of t-buOOH treatment was 51±4% (n=1664 neurons, pooled from 4 experiments) for untreated controls, 70±2% (n=2541 neurons, pooled from 4 experiments) for 2-MeSADP and 71±3% (n=1189 neurons, pooled from 4 experiments) for UTP treated co-cultures. […] The % astrocytes alive after 4.5 hours of t-buOOH treatment, in the absence of neurons, was 60±4% (n=294 cells) for control, 77±4% (n=294) for 2-MeSADP and 79±3% (n=333) for UTP treated astrocytes.
It should be noted that stimulation of neuroprotective response in astrocytes is not restricted to signaling through P2Y receptors. For example we have shown that administration of the membrane permeable IP3 analog, IP3BM, is capable of protecting astrocytes from oxidative damage. Thus, it appears possible that any stimulus capable of evoking IP3-mediated calcium release in astrocytes is equally suitable for application in the present treatment methods. To test this possibility, astrocyte cultures subjected to oxidative stress were treated with either 2-MeSADP, or the metabotropic glutamate receptor agonist (1 S, 3 R)-1-aminocyclopentane-1,3-dicarboxylic acid (ACPD), or were left untreated.
To directly examine the role of IP3 gated Ca^2+ release in P2Y-R enhanced astrocyte protection, we used a membrane permeant butyryloxymethyl ester of IP3 (IP3-BM). Cultures of astrocytes were exposed to IP3-BM and Ca^2+ levels were assessed using 2-photon imaging of Fura 2. Ca^2+ increases in response to IP3-BM application were easily detected, but they occurred over a much slower time course than those initiated by ATP treatment. This was not unexpected because of the slow process of IP3-BM movement across the lipid bilayer as well as the time needed to cleave the ester and accumulate IP3 in the cell. Because of the slower time course, we pretreated astrocytes for 20 minutes prior to exposing them to the oxidant stress t-BuOOH. […] The protective effect of IP3-BM treatment was blocked by the IP3R inhibitor, XeC. […]

Mouse cortical neurons = assay: Neuronal survival in transwell co-culture with astrocytes under t-buOOH oxidative stress (Hoechst/calcein); assay type: cell-based; settings: co-cultures; 10 min pre-treatment 2-MeSADP 2 μM or UTP 50 μM; 4.5 hours of t-buOOH
Procedure: Primary cultures of astrocytes were prepared as previously published (Lin et al., 2005). C57BL/6 male mice were purchased from the National Institute of Aging and maintained in standard accredited housing conditions at the University of Texas Health Science Center Animal Facility. Animal protocols were approved by our Institutional Animal Care Use Committee. Astrocytes were cultured in DMEM F-12 media (Invitrogen, # 11039-021) supplemented with 2 mM glutamine, nonessential amino acids, 10% fetal calf serum, 100 U/ml penicillin/streptomycin (Cambrex BioScience Walkersville, #17-602E) and 1% fungizone (Invitrogen, #15290-018) at 37° C. in an atmosphere containing 5% CO2. The culture medium was changed every 3-5 days. Confluent cells were gently removed by a trypsin EDTA solution and re-plated on 35 mm glass bottom chambers (Bioptechs #04200415C) prior to imaging experiments 3-4 days later. Cells were maintained in plastic culture flasks until the final re-seeding of cells onto a glass bottom chamber and were passed up to 3 times for astrocyte only experiments. For co-culture experiments with neurons, primary astrocytes were plated directly onto corning transwell-clear permeable supports, which physically separates the two cell-types by ˜1 mm (# 07-200-170, Fisher scientific). Astrocytes were cultured in transwells until they were ˜70% confluent. Mouse cortical neurons (Cambrex Bio Science Walkersville Inc., # M-CX-300) were then cultured onto 6 well mat-tek glass bottom plates and maintained in Neurobasal Medium (Invitrogen, # 21103-049), 2 mM L-Glutamine (Cambrex BioScience Walkersville, #17-605E), 100 U/ml penicillin/streptomycin (Cambrex BioScience Walkersville, #17-602E) and B-27 with (Invitrogen, #17504-044) and without antioxidants (Invitrogen, #10889-038), which controls glia contamination to less than 0.5%. The transwell supports with cultured astrocytes were placed in the neuron seeded glass bottom chambers for four days before imaging and both cell types were then maintained in neuronal media. For neuron only experiments, the astrocytes on the transwell supports were removed prior to treatments and imaging.
Sensitivity of neurons to oxidative stress was assessed by treating cultures with 100 μM tert-butyl hydrogen peroxide (t-BuOOH, Sigma, #B-2633) for 3 hours. Neurons were then stained with Hoechst 33342 (10 μg/ml, Molecular Probes, #H-3570) to label all cell nuclei and calcein AM (2 μM, #C3100, Molecular Probes, #C3100). […] Calcein fluorescence is only observed in live cells that have maintained their plasma membrane integrity. Images were acquired on an inverted Nikon TE300 microscope with a Hamamatsu ORCAER camera and Open lab software (Improvision).
To determine whether P2Y-R enhanced mitochondrial metabolism in astrocytes affected neuronal resistance to oxidative stress, we prepared co-cultures of neurons and astrocytes using corning transwell-clear permeable supports, which physically separates the two cell-types by ˜1 mm (# 07-200-170, Fisher scientific). Primary cultures of astrocytes were directly prepared in transwell supports until they were ˜70% confluent. Mouse cortical neurons were then cultured onto glass bottom mattek plates and maintained in B-27/Neurobasal Medium to control glia contamination to less than 0.5% (Invitrogen). After four days, co-cultures were treated with t-buOOH (100 μM) for 4 hours with and without pre-stimulation of ATP (2 μM, 10 minutes). Cells were then stained with the DNA intercalating dye Hoechst 33342 (10 μg/ml, Molecular Probes, #H-3570) and calcein AM (2 μM, Molecular Probes, #C3100). […] We then tested the neuroprotective affects of isoform specific purinergic ligands 2-MeSADP(P2Y1-R) and UTP(P2Y2-R). FIG. 6A depicts histogram plots of the percentage of neurons alive when cocultured with young or old astrocytes. FIG. 6B depicts histogram plots of the percentage of neurons alive pretreated with either 2-MeSADP (2 μM) or UTP (50 μM) for 10 min. […]

astrocytes [2] = assay: Intracellular ATP determination (luciferin-luciferase); assay type: cell-based, mouse
Procedure: Intracellular ATP was measured using a luciferin-luciferase kit (Invitrogen, #22066). Plated astrocytes were trypsinized and washed 3× with PBS buffer (GIBCO #14190). An aliquot of cells was set aside to measure the cell density with a hemocytometer. The cells were then suspended in a lysate buffer (4 mM EDTA and 100 mM Tris, pH 7.75) and immediately heated to 100° C. for 5 minutes to minimize enzymatic changes in ATP levels. The supernatant was collected after a 10,000 g centrifugation for 1 minute and used with the luciferin/luciferase kit according to the manufacturer's instructions. Luminescence was measured with a Synergy™ HT Multi-Detection Microplate Reader (BioTek). ATP levels were normalized by cell density.
Our next approach to investigate the role of mitochondrial metabolism was to directly measure ATP levels in cultures astrocytes using a luciferin-luciferase assay (Invitrogen). Astrocytes were cultured as described above, trypsinized and washed with buffer. The cells were then suspended in a lysate buffer and immediately heated to 100° C. (5 min) to minimize enzymatic changes in ATP levels. After centrifugation, the ATP dependent luminescence of supernatant was measured with a microplate reader (Biotek). FIG. 5C depicts histograms of the direct measurement of intracellular ATP levels relative to untreated cells (control), P2Y-R stimulated (MeADP), then the same measurements in the presence of oligomycin (oligo) or ruthenium 360 (Ru360). We estimated that the resting intracellular ATP concentration in cultured astrocytes was 0.31±0.14 μM ATP/10^4 cells (n=3). […] Finally, we tested whether ruthenium 360 (Ru360; Calbiochem), a polycation that inhibits the electrogenic mitochondrial Ca^2+ uniporter, affected mitochondrial ATP production.

Compound: N[C@@]1(C(=O)O)CC[C@@H](C(=O)O)C1 [ACPD, (1 S, 3 R)-1-aminocyclopentane-1,3-dicarboxylic acid]
- % of astrocytes alive (astrocytes [1]; 10 minutes pretreatment, 4 hours of t-BuOOH, mean+SD): 66+9%
- astrocyte resistance to oxidative stress (astrocytes [1]; astrocyte cultures subjected to oxidative stress, versus untreated): enhanced

Compound: O=c1ccn([C@@H]2O[C@H](COP(=O)(O)OP(=O)(O)OP(=O)(O)O)[C@@H](O)[C@H]2O)c(=O)[nH]1 [UTP, uridine 5′-triphosphate]
- % neurons alive (Mouse cortical neurons): 71±3%
- % astrocytes alive (astrocytes [1]; absence of neurons, 4.5 hours of t-buOOH, 2-MeSADP or UTP): 79±3%

- effect on ability of 2-MeSADP to increase ATP levels (astrocytes [2]; Ru360 1 μM 30 min + 2-MeSADP): completely blocked
- basal ATP levels, % of control values (astrocytes [2]; Ru360 1 μM, 30 min): 60.5%±10.5 % of control
Compound: ruthenium 360 [Ru360]
